Source: patent publication US20080075796A1, “Compositions and Methods for Controlling Insects” (TyraTech, Inc., priority 2003, published 2008)

Assays:
control Schneider cells = experiment: Intracellular Ca2+ mobilization in control Schneider cells; format: cell-based, Drosophila; conditions: FIG. 22
Description: (§1) Intracellular calcium ion concentrations ([Ca^2+]i) are measured by using the acetoxymethyl (AM) ester of the fluorescent indicator fura-2 (Enan, et al., Biochem. Pharmacol vol 51, 447-454). In this study, cells expressing tyramine receptor are grown under standard conditions. A cell suspension is prepared in assay buffer (140 mM NaCL, 10 mM HEPES, 10 mM glucose, 5 mM KCl, 1 mM CaCl2, 1 mM MgCl2) and cell number adjusted to about 2×10^6 cells per ml. Briefly, about 1.0 ml cell suspension (about 2×10^6 cells) is incubated with about 5 μM Fura 2/AM for about 30 min at about 28° C. After incubation, the cells are pelleted at about 3700 rpm for about 10 sec at room temperature and then resuspended in about 1.5 ml assay buffer. [Ca^2+]i changes are analyzed in spectrofluorometer in the presence and absence of test chemicals. Excitation wave lengths are about 340 nm (generated by Ca^2+-bound fura-2) and about 380 nm (corresponding to Ca^2+-free fura-2). The fluorescence intensity is monitored at an emission wave length of about 510 nm. No absorbance of fluorescence artifacts are observed with any of the compounds used. The ratio of about 340/380 nm is calculated and plotted as a function of time.
(§2) Changes in intracellular Ca^2+ levels are calculated based on the difference between the 340/380 fluorescence ratios before and after approximately 150 seconds of the treatment.

tyramine receptor (TyrR) = biological target: T1, tyramine receptor (TyrR) (Drosophila melanogaster, UniProt P22270); experiment: cAMP levels in Schneider cells expressing tyramine receptor; format: cell-based; parameters: oligonucleotides that are used to amplify the open reading frame of the Drosophila tyramine receptor (TyrR); expressed in transfected cells; conditions: forskolin about 10 μM, transfected cells, vs solvent (ethanol)
T1 sequence (P22270 27-601): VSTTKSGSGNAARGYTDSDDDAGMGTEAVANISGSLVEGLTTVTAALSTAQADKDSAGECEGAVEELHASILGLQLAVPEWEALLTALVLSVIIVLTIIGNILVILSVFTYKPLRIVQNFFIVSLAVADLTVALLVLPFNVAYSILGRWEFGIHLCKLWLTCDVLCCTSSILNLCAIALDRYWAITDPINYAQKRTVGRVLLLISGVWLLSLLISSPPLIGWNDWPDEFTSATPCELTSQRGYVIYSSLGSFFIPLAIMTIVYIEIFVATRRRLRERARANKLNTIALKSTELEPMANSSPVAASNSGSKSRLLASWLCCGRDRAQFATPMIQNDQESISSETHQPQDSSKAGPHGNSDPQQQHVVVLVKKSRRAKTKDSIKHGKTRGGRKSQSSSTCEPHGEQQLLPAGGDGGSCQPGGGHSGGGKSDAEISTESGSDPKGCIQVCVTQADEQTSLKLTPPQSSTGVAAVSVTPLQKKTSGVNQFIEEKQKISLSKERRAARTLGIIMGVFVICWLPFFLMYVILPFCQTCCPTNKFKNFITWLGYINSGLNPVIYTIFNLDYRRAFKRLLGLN
Description: (§3) Cells are grown on dishes and the media changed the day before the treatment. When cells are approximately 95% confluent, media is aspirated and the cells are washed one time with about 5 mL of about 27° C. insect saline (170 mM NaCl, 6.0 mM KCl, 2.0 mM NaHCO3, 17.0 mM glucose, 6.0 mM NaH2PO4, 2.0 mM CaCl2, 4.0 mM MgCl2; pH 7.0). About 20 mL of insect saline is added, and cells are harvested by gentle scraping. An aliquot of the cells is counted by hemocytometer, and the cells are then centrifuged for about 5 minutes at about 1000 RPM. Cells are resuspended to give about 3×10^6 cells per mL. IBMX is added to about 200 μM. Then about 1 mL of cell suspension is aliquoted for treatment. Forskolin (cAMP inducing agent), tyramine or different composition candidates are added, and the cells are incubated at about 27° C. for about 10 minutes.
Treated cells are centrifuged at about 13000 g for about 10 seconds. The solution is aspirated and about 1 mL of about −20° C. 70% ethanol is added. The cell pellet is disrupted by vortexing and the samples placed at about −20° C. overnight. Following the ethanol extraction, cellular debris is pelleted by centrifugation at about 13000 g for about 5 minutes. The supernatant is transferred to a tube and lyophilized to dryness in a rotary speed-vac. […]
The cAMP assay is based on competition binding between endogenous cAMP and ^3H-cAMP to a cAMP binding protein. […] About 200 μL of the reaction mixture is removed and levels of ^3H-cAMP are determined by scintillation counting. Levels of endogenous cAMP from the cells are calculated using a standard curve with cold cAMP ranging from about 0 to 16 pmol per reaction.
To examine test chemical-dependent coupling of the tyramine receptor, pAcB-TyrR is stably expressed in Schneider cells. Transfected and untransfected cells are treated with tyramine (about 10 μM), LFO (about 25 μg/ml) and BSO (about 25 μg/ml) in the presence and absence of forskolin (FK) (about 10 μM). cAMP production is measured using the ^3H-cAMP assay kit (Amersham) as described above.

Or43a receptor [1] = biological target: T2, Or43a receptor (Drosophila melanogaster, UniProt P81917, L154V); experiment: cAMP production in Schneider cells expressing Or43a receptor; format: cell-based; conditions: agent alone; tyramine about 20 μM, LFO, BSO about 50 μg/ml, forskolin about 10 μM
T2 construct: His (from vector pAc5.1/V5-His B) (C); expressed in transfected cells
Description: Cells are grown on dishes and the media changed the day before the treatment. […] About 20 mL of insect saline is added, and cells are harvested by gentle scraping. An aliquot of the cells is counted by hemocytometer, and the cells are then centrifuged for about 5 minutes at about 1000 RPM. Cells are resuspended to give about 3×10^6 cells per mL. IBMX is added to about 200 μM. Then about 1 mL of cell suspension is aliquoted for treatment. Forskolin (cAMP inducing agent), tyramine or different composition candidates are added, and the cells are incubated at about 27° C. for about 10 minutes.
(§4) Treated cells are centrifuged at about 13000 g for about 10 seconds. The solution is aspirated and about 1 mL of about −20° C. 70% ethanol is added. The cell pellet is disrupted by vortexing and the samples placed at about −20° C. overnight. Following the ethanol extraction, cellular debris is pelleted by centrifugation at about 13000 g for about 5 minutes. The supernatant is transferred to a tube and lyophilized to dryness in a rotary speed-vac. The resulting extract is resuspended in about 100 μL TE and used for the cAMP assay.
(§5) The cAMP assay is based on competition binding between endogenous cAMP and ^3H-cAMP to a cAMP binding protein. The ^3H-cAMP Biotrak system (Amersham Biosciences) is used for this assay as per the manufacturer's instructions. Briefly, about 50 μL of the cellular extract is incubated with about 50 μL ^3H-cAMP and about 100 μL cAMP binding protein in an ice bath for about 2-4 hours. Charcoal (about 100 μL) is then added and the solution centrifuged for about 3 minutes at about 4° C. About 200 μL of the reaction mixture is removed and levels of ^3H-cAMP are determined by scintillation counting.
As such, the cells expressing olfactory receptors have a functionally active cAMP cascade.

Or83b receptor [2] = biological target: T3, Or83b receptor (Drosophila melanogaster, UniProt Q9VNB5); experiment: cAMP production in Schneider cells expressing Or83b receptor; format: cell-based
T3 construct: His (from vector pAc5.1/V5-His B) (C); expressed in transfected cells
T3 sequence (Q9VNB5 1-486): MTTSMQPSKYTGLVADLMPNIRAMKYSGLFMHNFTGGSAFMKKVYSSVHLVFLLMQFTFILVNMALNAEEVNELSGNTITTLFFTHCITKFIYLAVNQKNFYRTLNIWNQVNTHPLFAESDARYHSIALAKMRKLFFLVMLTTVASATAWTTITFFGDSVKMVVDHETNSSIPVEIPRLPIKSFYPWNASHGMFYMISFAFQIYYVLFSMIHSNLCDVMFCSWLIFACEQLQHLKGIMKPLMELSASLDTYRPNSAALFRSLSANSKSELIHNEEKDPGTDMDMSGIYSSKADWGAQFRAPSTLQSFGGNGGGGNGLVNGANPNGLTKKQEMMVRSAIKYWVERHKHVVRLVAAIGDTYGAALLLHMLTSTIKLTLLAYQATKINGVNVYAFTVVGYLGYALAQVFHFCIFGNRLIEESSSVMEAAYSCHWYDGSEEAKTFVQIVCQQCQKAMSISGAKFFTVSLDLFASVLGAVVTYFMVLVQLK
Description: as §3, §4
as §5, with “counting. Levels of endogenous cAMP from the cells are calculated using a standard curve with cold cAMP ranging from about 0 to 16 pmol per reaction.” for “counting.”
To ensure that the cAMP cascade in this cell model is functionally active, forskolin, a cAMP inducer, is used as standard agent. Cyclic-AMP levels are measured using the cAMP assay described above in Example 2. […]
To determine the effect of various plant essential oils on intracellular cAMP production and the tyramine-dependent changes of cAMP in cells expressing one of the olfactory receptors, cells from each cell model are treated with LFO (about 50 μg/ml) and BSO (about 50 μg/ml) in the presence and absence of tyramine (about 20 μM) and forskolin (about 10 μM) and intracellular cAMP is thereafter quantified using the cAMP assay described above in Example 2.

Or83b receptor [3] = biological target: T3, Or83b receptor; experiment: Intracellular Ca^2+ mobilization in Schneider cells expressing Or83b receptor; format: cell-based; conditions: ionomycin about 2 μM, tyramine about 10 μM
Description: as §1
(§6) Intracellular Ca^2+ levels are measured using the method described above in Example 3.

Or43a receptor [4] = biological target: T2, Or43a receptor; experiment: Intracellular Ca^2+ mobilization in Schneider cells expressing Or43a receptor; format: cell-based
Description: as §1, §6, §2

[5] = system: Drosophila melanogaster tyramine receptor (TyrR), SEQ ID NO: 2; experiment: Receptor-specific binding of 3H-tyramine in Schneider cells transfected with TyrR; conditions: whole cells, FIG. 1
From the text: Tyramine receptor is amplified from Drosophila melanogaster head cDNA phage library GH that is obtained through the Berkeley Drosophila Genome Project (Baumann, A., 1999, Drosophila melanogaster mRNA for octopamine receptor, splice variant 1B NCBI direct submission, Accession AJ007617). The nucleic acid sequence and the peptide sequence of TyrR are set forth in SEQ ID NO: 1 and SEQ ID NO: 2, respectively. Phage DNA is purified from this library using a liquid culture lysate. (Baxter, et al., 1999, Insect Biochem Mol Biol 29, 461-467). Briefly, oligonucleotides that are used to amplify the open reading frame of the Drosophila tyramine receptor (TyrR) (Han, et al., 1998, J Neurosci 18, 3650-3658; von Nickisch-Rosenegk, et al., 1996. Insect Biochem Mol Biol 26, 817-827) consist of the 5′ oligonucleotide: 5′[…] 3′ (SEQ ID NO: 7) and 3′ oligonucleotide: 5′taatctaga[…] […]
Cells transfected with the tyramine receptor (about 1×10^6 cells/ml) are cultured in each well of a multi-well plate. […] Solubilized cells are transferred into about 4 ml Liquid Scintillation Solution (LSS) and vigorously vortexed for about 30 sec before counting the radioactivity using a Liquid Scintillation β-counter (Beckman, Model LS1801) (LSC).
With reference to FIG. 1, receptor specific binding data is expressed as fmol specific binding per 1×10^6 cells and measured as a function of ^3H-tyramine concentration. […]

[6] = system: untransfected Schneider cells; experiment: Response of untransfected Schneider cells to tyramine; format: binding, Drosophila; conditions: concentration as high as about 100 μM

T2 sequence (P81917 whole entry L154V): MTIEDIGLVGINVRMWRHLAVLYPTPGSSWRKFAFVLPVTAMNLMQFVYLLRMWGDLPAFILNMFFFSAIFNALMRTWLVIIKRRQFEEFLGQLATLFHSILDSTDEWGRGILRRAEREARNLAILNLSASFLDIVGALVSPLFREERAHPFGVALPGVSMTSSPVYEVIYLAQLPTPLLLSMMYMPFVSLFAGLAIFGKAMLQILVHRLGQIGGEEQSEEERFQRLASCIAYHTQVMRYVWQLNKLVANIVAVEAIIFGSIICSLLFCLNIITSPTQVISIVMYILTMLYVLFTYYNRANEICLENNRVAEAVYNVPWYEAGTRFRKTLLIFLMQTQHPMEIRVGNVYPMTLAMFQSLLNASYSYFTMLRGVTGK

**Q.** How did the “mobilization of Ca2+ in control cells” value (control Schneider cells) turn out when `C[C@H](CCC(=O)O)C[C@H](C)C[C@H](C)C(=O)/C=C(\O)[C@H](C)C[C@H](C)C/C=C/[C@@H](C)[C@@H](O)[C@@H](C)[C@@H](O)C[C@@H]1CC[C@@](C)([C@H]2CC[C@@](C)([C@@H](C)O)O2)O1` [ionomycin] was run?
**A.** induce mobilization of Ca^2+

**Q.** `C=C[C@@]1(C)CC(=O)[C@]2(O)[C@@]3(C)[C@@H](O)CCC(C)(C)[C@@H]3[C@H](O)[C@H](OC(C)=O)[C@@]2(C)O1` [forskolin] was tested. Which “increase in cAMP levels over basal level” value (tyramine receptor (TyrR)) did it give?
**A.** ~19 fold

**Q.** And the “change in cAMP levels” value (Or43a receptor [1])?
**A.** increase in cAMP levels

**Q.** What about the “increase in the production of cAMP” value (Or83b receptor [2]; forskolin about 10 μM (Example 11)) of the same compound?
**A.** ~3000 fold

**Q.** And the “increase from basal cAMP levels” value (Or83b receptor [2]; forskolin about 10 μM, about 10 min, room temperature)?
**A.** ~13 fold

**Q.** With `C[C@H](CCC(=O)O)C[C@H](C)C[C@H](C)C(=O)/C=C(\O)[C@H](C)C[C@H](C)C/C=C/[C@@H](C)[C@@H](O)[C@@H](C)[C@@H](O)C[C@@H]1CC[C@@](C)([C@H]2CC[C@@](C)([C@@H](C)O)O2)O1` [ionomycin, reference compound] as the compound, how does the “increase in intracellular calcium” value (Or83b receptor [3]) read?
**A.** Approximately 3.8 fold

**Q.** And the “change in intracellular Ca^2+ levels (340/380 fluorescence ratio)” value (Or43a receptor [4]; before vs approximately 150 seconds after treatment)?
**A.** only negligibly

**Q.** And the “increase in intracellular calcium” value (Or43a receptor [4]; ionomycin about 2 μM, tyramine about 10 μM)?
**A.** ~7 fold

**Q.** Which “3H-tyramine concentration at which maximum specific binding occurs” value [5] does the source give for `NCCc1ccc(O)cc1` [Tyramine, tyramine] here?
**A.** about 5 nM

**Q.** And the “response of untransfected cells” value [6]?
**A.** do not respond

**Q.** And the “mobilization of Ca2+ in control cells” value (control Schneider cells)?
**A.** induce mobilization of Ca^2+
